This passage reports mass density and refractive index results from the NIST ThermoML archive (doi:10.1016/j.jct.2004.12.014).

For series [1] the following is noted: 318.15 K; 101.33 kPa; Liquid.
Series [2] is described as follows: refractive index (Na D-line) (dimensionless). As to conditions: 318.15 K; 101.33 kPa; Liquid; Standard Abbe refractometry.

Structures are written as SMILES. ± gives the expanded uncertainty stated by the source.

Take `CCCOC(=O)CC` [propyl propanoate]: the mass density (commonly the mass of a sample divided by its volume) in series [1] was determined as 854.57 ± 0.99 kg/m3. The refractive index (commonly the speed of light in vacuum divided by its phase velocity in the sample) in series [2] is on record as 1.3809 ± 0.0008.
